Reference: patent publication US6649647B1, “Trioxane derivatives” (priority 1998, dated 2003)

Tests used:
Format in all cases: cell-based
[1] = system: Rat 6 subclone of the immortalized F2408 embryo cell line (R6); experiment: Screening for cytotoxicity, cell count by Coulter Counter, R6 cells; settings: for LD50 (Day 3) R6: day 3 after addition; for LD50 (Day 6) R6: day 6 after addition
Experimental: (§1) Compounds of the invention were screened against Rat 6 subclone of the immortalized F2408 embryo cell line, and Rat 6 (R6T24) cells transfected and transformed by a c-H-ras oncogene. The screening involved placing the R6 and R6T24 cell lines plated at 10^3 cells per well into a 12-well microtiter culture plate for 24 hours. The compounds were added at final concentrations from 0.1-100 μM, and cells were trypsized and counted by Coulter Counter at day 3 and day 6 after the addition. Untreated cells were assigned a survival value of 100%.

[2] = system: Rat 6 (R6T24) cells transfected and transformed by a c-H-ras oncogene; experiment: Screening for cytotoxicity, cell count by Coulter Counter, R6T24 cells; settings: R6T24 cell line; for LD50 (Day 3) R6T24: day 3 after addition; for LD50 (Day 6) R6T24: day 6 after addition
Experimental: as §1

[3] = system: DNA within the cell; experiment: DNA comet assay; settings: cells after 3 or 6 day treatment
Excerpt: In this technique, cells are embedded in agarose gel on a frosted slide after 3 or 6 day treatment, the cells are then lysed and submitted to electrophoresis. The DNA was stained after electrophoresis by ethidium bromide and images of the DNA “comets” were obtained by using an image analysis software package.

Compound | LD50 (Day 3) R6 ([1]; Table V) [µM] | LD50 (Day 6) R6 ([1]; Table V) [µM] | LD50 (Day 3) R6 ([1]; Table VA) [µM] | LD50 (Day 6) R6 ([1]; Table VA) [µM] | LD50 (Day 3) R6T24 ([2]; Table V) [µM] | LD50 (Day 6) R6T24 ([2]; Table V) [µM] | LD50 (Day 3) R6T24 ([2]; Table VA) [µM] | LD50 (Day 6) R6T24 ([2]; Table VA) [µM] | DNA damage in the DNA comet assay [3] | binding to DNA (DNA comet assay technique) [3]
CC1CCC2C(CN3CCc4ccccc43)C(=O)OC3OC4(C)CCC1C32OO4 (centres unmarked) [Example 22, 16-(N-1′-indolinyl)artemisinin] | 24.77 | 29.24 | 25 | 29 | 11.38 | 7.45 | 12 | 7.5 | strong DNA damage | –
10α and β-[(2′-naphthylmethyl)oxy]dihydroartemisinin [Example 13] | 0.14 | 0.037 | – | – | 0.12 | 0.02 | – | – | strong DNA damage | –
CC1CCC2[C@@H](C)C(O)OC3O[C@]4(C)CCC1C32OO4 (some centres unmarked) [Dihydroartemisinin, dihydroartemisinin, reference compound] | 1.64 | 0.86 | 1.64 | 0.86 | 2.22 | 0.24 | 2.22 | 0.24 | – | does not bind to DNA
